In patent US11690856B2, “Compounds for treating CMV related diseases” (INSERM (INSTITUT NATIONAL DE LA SANTE ET DE LA RECHERCHE …, priority 2017, dated 2023):

How the values were obtained:
Type in all cases: in vivo, rat
microglia [1] = assay: Immunohistochemistry and cell counting of microglia (Iba1, Ed1/Cd68) in CMV-infected pup brain; conditions: P1, lateral ventricular area; per os to dam E0 to birth; CMV untreated 42.74%, MEM 14.28%
Protocol: Immunohistochemistry experiments were carried out on coronal brain slices (50-100 μm, vibratome, Microm; 14 μm, cryostat, Leica) as described previously (9) with the following primary (anti-Iba1: 1/500, Wako; anti-Cd68, Ed1 clone: 1/200, Millipore) and secondary (Alexa Fluor 568 or 647-conjugated goat anti-rabbit or anti-mouse IgGs; Life Technologies) antibodies. Hoescht 33258 (1:2000, Sigma) was used for nuclei staining.
For cell counting analyses, at least three adjacent brain sections were analyzed throughout the entire z-dimension for each sample using confocal microscopy. […] Cells were counted manually in each brain with Cell Profiler cell image analysis software (Broad Institute Cambridge, Mass., USA). For each channel of stack images, mean image intensity was measured using “MeasureImageIntensity” module and cells were identified with “IdentifyPrimaryObjects” module, in which Min and Max typical diameter of objects was set between 20 and 80 pixel units, respectively, and threshold was corrected by the mean intensity measured previously. Then, using mask images generated with the aforementioned module, colocalization between channels was evaluated with “RelateObjects” and “MaskObjects” in order to determine the number of overlapping objects. Finally, data were exported to a spreadsheet containing the number of quantified cells for each staining and of colocalizations. […]

CMV-infected pups [2] = assay: Postnatal survival of pups infected with CMV in utero
Protocol: (§1) Wistar rats (Janvier Labs, France) were raised and mated at INMED Post Genomic Platform (PPGI) animal facility. Rat cytomegalovirus (rat CMV) recombinant Maastricht strain (RCMV-Δ145-147-gfp) with a green fluorescent protein (GFP) expression cassette, and its production, purification and titration, were reported previously (17). In utero icv injections were performed at E15 as previously described (9,18) in embryos from timed pregnant rats that were anaesthetized with ketamine (100 mg/kg)/xylazine (10 mg/kg). […] Microglia status was modified in the embryos in vivo with doxycycline per os given to the mother throughout pregnancy (200 mg/kg in food pellet chow, Bioserv).
Data were expressed as means ±s.e.m. unless otherwise stated. Non-parametric Mann Whitney test (two-tailed) followed by Bonferroni correction if needed, and non-parametric Kruskall-Wallis test to detect heterogeneous distribution between groups followed by Dunn's post test for multiple comparisons. were used whenever appropriate. Univariate Cox analysis and Fisher's exact test (two-tailed) were used to compare between survival distributions and rates and parametric Student's t test was used to compare between weight gains, whereas Chi-square test with Bonferroni correction and mixed model for repeated data using PROC GLIMMIX with sas 9.4 were used for all other phenotypic comparisons between groups of animals.

CMV-infected pups [3] = assay: Righting reflex sensorimotor test; conditions: treated in utero vs untreated infected pups; P1-P20; p=0.025
Protocol: as §1
(§2) For righting reflex evaluation, rat pups were placed in a supine position, and the time required to flip to the prone position was measured. For the cliff aversion reflex, animals were placed with their forepaws overhanging the edge of a board; the time required to turn >90° away from the edge was recorded. […] Generalized tonic-clonic epileptic seizures were detected visually, usually after animal handling, especially during cage changing and behavioral testing. […] For each rat, the reference electrode was inserted beneath the pinna of the assessed ear, the positive electrode beneath the skin on the vertex of the head, the ground electrode on the animal's back. […] Impedances were monitored to be below 2000Ω. […]

CMV-infected pups [4] = assay: Cliff aversion reflex sensorimotor test; conditions: treated in utero vs untreated infected pups; P1-P20; p<10^-4
Protocol: as §1, §2

CMV-infected pups [5] = assay: Hindlimb paralysis, determined visually
Protocol: as §1, §2

CMV-infected pups [6] = assay: Generalized tonic-clonic epileptic seizures, detected visually
Protocol: as §1, §2

microglia [7] = assay: Flow cytometry of brain leukocytes (CD45, CD11b/c, RT1B) for microglia status
Protocol: as §1
Leukocytes from brains obtained from anesthetized P1 or P7 pups were isolated as previously described (9). 1 to 3×10^6 leukocytes were incubated with Zombie NIR Fixable Viability kit (1:200; Bio legend) for 20 min at RT. Fc receptors were blocked using mouse anti-rat CD32 antibody (FcγII receptor, clone D34-485) for 10 min. at 4° C. to prevent against nonspecific binding. Cells were then stained with antibodies against combinations of cell surface markers as previously listed and described (9). An average of 1.3×10^5 living singlet cells were analyzed per brain equivalent on a BD LSRFortessa cell cytometer and raw data were analyzed using FACSDiva V8.0 software (BD Biosciences).

C[C@H]1c2cccc(O)c2C(=O)C2=C(O)[C@]3(O)C(=O)C(C(N)=O)=C(O)[C@@H](N(C)C)[C@@H]3[C@@H](O)[C@@H]21 [doxycycline]
phagocytic activation index (PAI), ratio of Iba1+ Ed1+ cells to total Iba1+ cells (microglia [1]): 17.32% | infected pups survived at P20 (CMV-infected pups [2]; dams treated per os throughout pregnancy, untreated 29.6%): 86.1% | lower risk to postnatal death (CMV-infected pups [2]; first three postnatal weeks, treated in utero vs untreated CMV-infected, p=0.0006): 5.1 | success to righting, odds ratio (CMV-infected pups [3]): 2.6 | success to cliff aversion, odds ratio (CMV-infected pups [4]): 9.9 | CMV-infected pups displaying hindlimb paralysis (CMV-infected pups [5]; first three postnatal weeks, untreated 83.3%, p=0.001): 50% | drop in risk of hindlimb paralysis (CMV-infected pups [5]; treated vs untreated, p=0.03): 6.2 fold | decrease in risk of epileptic seizures (CMV-infected pups [6]; period of evaluation, treated in utero, p<10^-4): 5.9 fold | proportion of epileptic CMV-infected rats (CMV-infected pups [6]; untreated 24%, p=0.12): 11% | proportion of reactive CD45low/int, CD11b/c+, RT1B+ microglia (fraction IV) (microglia [7]; P7, after treatment discontinuation, untreated 58.93%): 55.76% | proportion of MHC class II-positive reactive microglia (fraction IV: CD45low/int, CD11b/c+, RT1B+) (microglia [7]; whole brain at P1, CMV untreated 13.98%, controls 0.73%): 5.66%
